Where “and” joins values, the source holds several entries; their conditions need not be identical. Identical values can stand only once. Inconclusive results and toxic doses are left out. Residues, ends and D or L forms follow the SMILES beside them.
System: BDF1 mice, P388 leukemia ip, median survival T/C
Experiment: NCI In Vivo Anticancer Drug Screen. Data for tumor model P388 Leukemia (intraperitoneal) in B6D2F1 (BDF1) mice
Settings: endpoint: median survival time, higher = longer survival
Outline: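 Read-out is survival of treated animals expressed relative to the vehicle group, as a T/C ratio.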

[1] = dose: 50.0 mg/kg/injection, schedule: Q01DX009 (ip), vehicle: saline with Tween-80
[2] = dose: 100.0 mg/kg/injection, schedule: Q01DX009 (ip), vehicle: Klucel (hydroxypropylcellulose) (HPC)
[3] = dose: 200.0 mg/kg/injection, schedule: Q01DX009 (ip), vehicle: Klucel (hydroxypropylcellulose) (HPC)
[4] = dose: 400.0 mg/kg/injection, schedule: Q01DX009 (ip), vehicle: Klucel (hydroxypropylcellulose) (HPC)
[5] = dose: 100.0 mg/kg/injection, schedule: Q01DX009 (ip), vehicle: saline with Tween-80
[6] = dose: 200.0 mg/kg/injection, schedule: Q01DX009 (ip), vehicle: saline with Tween-80
[7] = dose: 200.0 mg/kg/injection, schedule: Q04DX003 (ip), vehicle: Klucel (hydroxypropylcellulose) (HPC)
[8] = dose: 100.0 mg/kg/injection, schedule: Q04DX003 (ip), vehicle: Klucel (hydroxypropylcellulose) (HPC)
[9] = dose: 400.0 mg/kg/injection, schedule: Q04DX003 (ip), vehicle: Klucel (hydroxypropylcellulose) (HPC)

SMILES: NC(CSC(c1ccccc1)(c1ccccc1)c1ccc(Cl)cc1)C(=O)O (configuration not stated)
- T/C (dose: 33.0 mg/kg/injection, schedule: Q04DX003 (ip), vehicle: saline with Tween-80): 190 % of control
- T/C [1]: 272 % of control
- T/C (dose: 50.0 mg/kg/injection, schedule: Q04DX003 (ip), vehicle: saline with Tween-80): 190 % of control
- T/C (dose: 75.0 mg/kg/injection, schedule: Q04DX003 (ip), vehicle: saline with Tween-80): 272 % of control

SMILES: COC(=O)c1ccccc1C1(c2ccccc2C(=O)OC)OC(=O)c2ccccc21
- T/C [2]: 100 % of control
- T/C [3]: 100 % of control
- T/C [4]: 100 % of control

SMILES: CC(O)CN(CCN(CC(C)O)CC(C)O)CC(C)O.[Cl-].[Co+2] (configuration not stated)
- T/C (dose: 100.0 mg/kg/injection, schedule: Q01DX009 (ip), vehicle: saline): 110 % of control

SMILES: CC12C=CC(=O)C=C1CCC1C3CCC(O)(C(=O)CO)C3(C)CC(O)C12F (configuration not stated)
- T/C (dose: 25.0 mg/kg/injection, schedule: Q04DX003 (sc), vehicle: steriod suspending solution): 113 % of control
- T/C (dose: 50.0 mg/kg/injection, schedule: Q04DX003 (sc), vehicle: steriod suspending solution): 86 % of control
- T/C (dose: 56.25 mg/kg/injection, schedule: Q01DX009 (sc), vehicle: steriod suspending solution): 100 % of control
- T/C (dose: 100.0 mg/kg/injection, schedule: Q04DX003 (sc), vehicle: steriod suspending solution): 86 % of control
- T/C (dose: 112.5 mg/kg/injection, schedule: Q01DX009 (sc), vehicle: steriod suspending solution): 118 % of control
- T/C (dose: 150.0 mg/kg/injection, schedule: Q04DX003 (sc), vehicle: steriod suspending solution): 104 % of control
- T/C (dose: 225.0 mg/kg/injection, schedule: Q01DX009 (sc), vehicle: steriod suspending solution): 104 % of control
- T/C (dose: 225.0 mg/kg/injection, schedule: Q04DX003 (sc), vehicle: steriod suspending solution): 90 % of control

SMILES: Cc1cccc(C(=O)Cc2cccc(C#N)c2)c1
- T/C [1]: 113 % of control
- T/C [5]: 99 % of control
- T/C [6]: 96 % of control

SMILES: CC1(C)SC(=S)N(c2ccc([N+](=O)[O-])cc2)C1=O
- T/C (dose: 75.0 mg/kg/injection, schedule: Q01DX009 (ip), vehicle: saline with Tween-80): 115 % of control
- T/C (dose: 150.0 mg/kg/injection, schedule: Q01DX009 (ip), vehicle: saline with Tween-80): 113 % of control
- T/C (dose: 300.0 mg/kg/injection, schedule: Q01DX009 (ip), vehicle: saline with Tween-80): 96 % of control

SMILES: CC(=O)NC(Cc1ccccc1)C(=O)NC(CCCN=C(N)N)C(=O)O (stereo not drawn) (Ac-Phe-Arg-OH; configuration not given here)
- T/C (dose: 50.0 mg/kg/injection, schedule: Q01DX005 (ip), vehicle: saline): 108 % of control
- T/C (dose: 100.0 mg/kg/injection, schedule: Q01DX005 (ip), vehicle: saline): 115 % of control
- T/C (dose: 200.0 mg/kg/injection, schedule: Q01DX005 (ip), vehicle: saline): 105 % of control

SMILES: O=C(O)C1C(C(=O)O)C2(Cl)C(Cl)=C(Cl)C1(Cl)C2(Cl)Cl.[Cu+2] (configuration not stated)
- T/C (dose: 12.5 mg/kg/injection, schedule: Q01DX009 (ip), vehicle: saline sonified): 100 % of control
- T/C (dose: 25.0 mg/kg/injection, schedule: Q01DX009 (ip), vehicle: saline sonified): 110 % of control

SMILES: CCCCC(C)(O)CC (configuration not stated)
- T/C [1]: 109 % of control
- T/C [5]: 118 % of control
- T/C (dose: 100.0 mg/kg/injection, schedule: Q04DX003 (ip), vehicle: saline with Tween-80): 104 % of control
- T/C [6]: 100 % of control
- T/C (dose: 200.0 mg/kg/injection, schedule: Q04DX003 (ip), vehicle: saline with Tween-80): 104 % of control

SMILES: O=C1C=C(N2CC2)C(=O)C(N2CC2)=C1N1CC1
- T/C (dose: 0.02 mg/kg/injection, schedule: Q01DX009 (ip), vehicle: saline): 265 % of control and 328 % of control
- T/C (dose: 0.04 mg/kg/injection, schedule: Q01DX009 (ip), vehicle: saline): 98 % of control

SMILES: O=C(NC1CCCCC1)N(C(=O)C(F)(F)F)C1CCCCC1
- T/C [1]: 97 % of control
- T/C [5]: 93 % of control
- T/C [6]: 93 % of control

SMILES: CCC(CO)NC(=O)/C=C/c1ccccc1 (configuration not stated)
- T/C [6]: 91 % of control
- T/C (dose: 400.0 mg/kg/injection, schedule: Q01DX009 (ip), vehicle: saline with Tween-80): 91 % of control

SMILES: CC(=O)CC(C)=O.CC(=O)CC(C)=O.[NH-]C1CCCCC1.[NH-]C1CCCCC1.[Ni+2]
- T/C (dose: 19.0 mg/kg/injection, schedule: Q04DX003 (ip), vehicle: saline with Tween-80): 104 % of control
- T/C (dose: 20.0 mg/kg/injection, schedule: Q04DX003 (ip), vehicle: saline): 100 % of control
- T/C (dose: 37.5 mg/kg/injection, schedule: Q04DX003 (ip), vehicle: saline with Tween-80): 118 % of control
- T/C (dose: 40.0 mg/kg/injection, schedule: Q04DX003 (ip), vehicle: saline): 112 % of control

SMILES: N#Cc1c(N)sc(N)c1C#N
- T/C [3]: 115 % of control
- T/C [4]: 110 % of control

SMILES: NC(=O)OCCI
- T/C (dose: 50.0 mg/kg/injection, schedule: Q04DX003 (ip), vehicle: other): 100 % of control
- T/C (dose: 100.0 mg/kg/injection, schedule: Q04DX003 (ip), vehicle: other): 120 % of control
- T/C (dose: 132.0 mg/kg/injection, schedule: Q04DX003 (ip), vehicle: Klucel (hydroxypropylcellulose) (HPC)): 150 % of control and 177 % of control
- T/C [7]: 90 % of control
- T/C (dose: 200.0 mg/kg/injection, schedule: Q04DX003 (ip), vehicle: other): 155 % of control

SMILES: CSc1cccc(NC(=O)OCCOc2ccc(-c3ccccc3)cc2)c1
- T/C (dose: 12.5 mg/kg/injection, schedule: Q01DX009 (ip), vehicle: Klucel (hydroxypropylcellulose) (HPC)): 109 % of control
- T/C (dose: 25.0 mg/kg/injection, schedule: Q01DX009 (ip), vehicle: Klucel (hydroxypropylcellulose) (HPC)): 105 % of control
- T/C (dose: 50.0 mg/kg/injection, schedule: Q01DX009 (ip), vehicle: Klucel (hydroxypropylcellulose) (HPC)): 111 % of control

SMILES: OCC1OC(n2ccc3c2ncn2ccnc32)C(O)C1O (configuration not stated)
- T/C (dose: 25.0 mg/kg/injection, schedule: Q04DX003 (ip), vehicle: saline): 110 % of control
- T/C (dose: 50.0 mg/kg/injection, schedule: Q04DX003 (ip), vehicle: saline): 102 % of control
- T/C (dose: 100.0 mg/kg/injection, schedule: Q04DX003 (ip), vehicle: saline): 96 % of control
- T/C (dose: 200.0 mg/kg/injection, schedule: Q04DX003 (ip), vehicle: saline): 102 % of control

SMILES: COc1cccc(N2C(=O)CSC2=S)c1
- T/C [5]: 91 % of control
- T/C [6]: 100 % of control

SMILES: CCOC(=O)C(c1cccc(OC)c1)C1(C(=O)OCC)CC2(CCC1=O)OCCO2 (configuration not stated)
- T/C (dose: 50.0 mg/kg/injection, schedule: Q01DX001 (ip), vehicle: saline sonified): 104 % of control
- T/C (dose: 100.0 mg/kg/injection, schedule: Q01DX001 (ip), vehicle: saline sonified): 100 % of control
- T/C (dose: 200.0 mg/kg/injection, schedule: Q01DX001 (ip), vehicle: saline sonified): 100 % of control

SMILES: CCCC(C(=O)c1ccc(OC)cc1)C(O)(C(F)(F)F)C(F)(F)F (configuration not stated)
- T/C [8]: 95 % of control
- T/C [7]: 100 % of control
- T/C [9]: 100 % of control

SMILES: COC(OC)c1cc(S)[nH]c(=O)c1F
- T/C [8]: 100 % of control
- T/C [7]: 110 % of control
- T/C [9]: 100 % of control

SMILES: O=C1c2ccccc2C(=O)N1c1cc(O)cc(O)c1
- T/C (dose: 1.0 mg/kg/injection, schedule: Q01DX009 (ip), vehicle: water): 109 % of control
- T/C (dose: 2.0 mg/kg/injection, schedule: Q01DX009 (ip), vehicle: water): 113 % of control
- T/C (dose: 4.0 mg/kg/injection, schedule: Q01DX009 (ip), vehicle: water): 95 % of control and 98 % of control and 105 % of control
- T/C (dose: 8.0 mg/kg/injection, schedule: Q01DX009 (ip), vehicle: water): 90 % of control and 95 % of control
- T/C (dose: 16.0 mg/kg/injection, schedule: Q01DX009 (ip), vehicle: water): 100 % of control and 115 % of control
- T/C (dose: 20.0 mg/kg/injection, schedule: Q01DX009 (ip), vehicle: water): 101 % of control
- T/C (dose: 32.0 mg/kg/injection, schedule: Q01DX009 (ip), vehicle: water): 109 % of control
- T/C (dose: 50.0 mg/kg/injection, schedule: Q04DX003 (ip), vehicle: water): 100 % of control
- T/C (dose: 100.0 mg/kg/injection, schedule: Q04DX003 (ip), vehicle: water): 106 % of control
- T/C (dose: 200.0 mg/kg/injection, schedule: Q04DX003 (ip), vehicle: water): 97 % of control
- T/C (dose: 400.0 mg/kg/injection, schedule: Q04DX003 (ip), vehicle: water): 92 % of control

SMILES: CN(CCC(=O)c1cccc2ccccc12)Cc1ccccc1
- T/C [2]: 115 % of control
- T/C [3]: 100 % of control
- T/C [4]: 105 % of control
